Test results published in patent US6420571B2, “Methods for preparing antiviral calanolide compounds” (Sarawak MediChem Pharmaceuticals, Inc., priority 1999, dated 2002).

Experiments:
HIV-1 [1] = conditions: CEM-SS cells; read-out: EC50, HIV-1 replication; cited from earlier work
[2] = system: AZT-resistant G-9106 strain of HIV; conditions: cited from earlier work
[3] = system: pyridinone-resistant A17 virus; conditions: cited from earlier work
HIV-1 [4] = conditions: down to a concentration of 0.1 μM; cited from earlier work

CCCc1cc(=O)oc2cc(OC(=O)C(C)(C)C)cc(O)c12
melting point: 158 to 160 °C

CCCc1cc(=O)oc2c3c(c4c(c12)OC(C)(C)C=C4)O[C@H](C)[C@@H](C)[C@@H]3O [(+)-calanolide A]
EC50 (HIV-1 [1]): 100 nM
activity against AZT-resistant G-9106 strain of HIV [2]: active
activity against pyridinone-resistant A17 virus [3]: active
protection against the cytopathic effects of HIV-1 (HIV-1 [4]): 100%
